Values quoted from earlier work as cited in patent US6495173B1, “Compositions and methods for reducing or controlling blood cholesterol, lipoproteins, triglycerides and atherosclerosis” (priority 2000, dated 2002).
Values belong to the molecule of their own block, whether it stands above or below them.

Columns and labels:
[1] = 100 mg per day for 30 days
[2] = 75 mg to 600 mg/day, eight years
[3] = human, in vivo
[4] = in vivo
[5] = large doses (3 to 6 g/day)
[6] = mean dose of 2,250 mg/day
[7] = rats
[8] = 500 mcg BID, after 2 and 4 months
[9] = supplement users versus non-users

Coenzyme Q10 levels in all three LDL subfractions ([1]; P<0.01): increased
Molecule: COC1=C(OC)C(=O)C(C/C=C(\C)CC/C=C(\C)CC/C=C(\C)CC/C=C(\C)CC/C=C(\C)CC/C=C(\C)CC/C=C(\C)CC/C=C(\C)CC/C=C(\C)CCC=C(C)C)=C(C)C1=O [Coenzyme Q10]
hydroperoxide levels in the LDL3 subfraction [1]: significant decrease
decreased dependency on drugs [2]: 43%
improvements in myocardial function [2]: 58%

increased liver transaminase levels, share of subjects [4]: 2%
myopathy with a creatine kinase greater than 10 times normal, share of subjects [4]: 0.5%
required discontinuation, share of those treated [4]: 9%
Molecule: CC[C@H](C)C(=O)O[C@H]1C[C@@H](C)C=C2C=C[C@H](C)[C@H](CC[C@@H]3C[C@@H](O)CC(=O)O3)[C@H]21 [Lovastatin, lovastatin]
decrease in levels of LDL [3]: 32.4%
decrease in levels of VLDL [3]: 53%

Molecule: O=C(O)c1cccnc1 [Nicotinic acid]
increase in HDL [5]: ≤ 30 mg/dL
increase in levels of HDL-cholesterol [6]: 35%

Molecule: CC(C)(C)c1cc(O)ccc1O [TBHQ, tert-butylhydroquinone]
blood cholesterol and triglycerides [7]: reduce

Molecule: [Cr] [chromium]
blood sugar and cholesterol versus placebo group [8]: lower

Molecule: chromium picolinate
triglyceride level (supplementation for 2 months (vs. 161)): 133 mg/dL
reduction in triglyceride levels (supplementation for 2 months, P<0.05): 17.4%

Molecule: vitamin E
absolute risk reduction [9]: 3.4 women per 10,000 woman-years
reduction in relative risk for non-fatal myocardial infarction and death from cardiovascular disease ([9]; average 8 years follow-up, adjusted): 31%
